Experimental data taken from US20210395210A1, “INHIBITION OF BACTERIAL CHAPERONIN SYSTEMS” (THE TRUSTEES OF INDIANA UNIVERSITY, priority 2018, published 2021).
Where two headings read alike, the source gives them in different places. Blank lines part the entries; values can stand above or below the compound they belong to.

How the values were obtained:
[1] = tested on: Methicillin resistant S. aureus (MRSA) (ATCC BAA-44); assay: Bacterial proliferation assay, MRSA; format: cell-based, Staphylococcus aureus; conditions: Staphylococcus aureus
How it was run: (§1)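 Cultures in BHI broth with 25 mg/L Ca2+ and 12.5 mg/L Mg2+ were diluted to OD600 0.017 and exposed to compounds in 384-well plates at 37 °C without shaking. OD600 was read at 6-8 h (S. aureus, E. cloacae, P. aeruginosa) or 24 h (A. baumannii). EC50 values were averaged over quadruplicates.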

native MDH = biological target: T1, native MDH (Sus scrofa, UniProt P00346); assay: Counter-screen for inhibition of native MDH enzymatic activity; format: biochemical, pig
T1 construct: soluble pig heart MDH from Roche, product #10127248001; purchased Roche 10127248001; host or cells: pig heart
T1 sequence (P00346 25-338): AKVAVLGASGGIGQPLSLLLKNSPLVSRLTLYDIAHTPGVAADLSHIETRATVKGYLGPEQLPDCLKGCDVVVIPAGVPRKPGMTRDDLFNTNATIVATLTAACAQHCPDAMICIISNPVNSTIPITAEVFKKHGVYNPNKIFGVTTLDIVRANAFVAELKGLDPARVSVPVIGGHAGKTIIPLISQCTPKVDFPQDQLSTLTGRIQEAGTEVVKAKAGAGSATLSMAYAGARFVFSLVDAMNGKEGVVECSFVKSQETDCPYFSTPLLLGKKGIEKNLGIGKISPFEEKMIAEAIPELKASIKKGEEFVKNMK
How it was run: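 Compounds were added only after GroEL/ES-mediated MDH refolding (45 min, 37 °C) had been EDTA-quenched, so only refolded MDH activity is probed.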

[2] = tested on: Enterococcus faecium (ATCC 19434); assay: Bacterial proliferation assay, E. faecium; format: cell-based
How it was run: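 Enterococcus faecium ATCC 19434 was grown overnight at 37° C. in BHI broth supplemented with 25 mg/L Ca^2+ and 12.5 mg/L Mg^2+, subcultured 1:5, and diluted to OD600 0.017. 30 μL portions went into 384-well plates holding compounds, sealed with oxygen-permeable membranes, and incubated stagnant at 37° C. OD600 was read at 24 h to give EC50.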

[3] = tested on: Klebsiella Pneumonia (ATCC 13883); assay: Bacterial proliferation assay, K. pneumoniae; format: cell-based
How it was run: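 Klebsiella pneumoniae ATCC 13883 was cultured in Brain Heart Infusion medium supplemented with 25 mg/L Ca^2+ and 12.5 mg/L Mg^2+. Cells were diluted to OD600 0.017, and 30 μL was added to 384-well plates holding 0.5 μL compound in 20 μL media. Plates were incubated stagnantly at 37° C., and OD600 was read at 6-8 h to determine EC50.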

[4] = tested on: Acinetobacter baumannii (ATCC 19606); assay: Bacterial proliferation assay, A. baumannii; format: cell-based
How it was run: as §1

[5] = tested on: Drug sensitive Staphylococcus aureus (ATCC 25923); assay: Bacterial proliferation assay, drug sensitive S. aureus; format: cell-based
How it was run: as §1

[6] = tested on: Enterobacter cloacae (ATCC 13047); assay: Bacterial proliferation assay, E. cloacae; format: cell-based
How it was run: as §1

- IC50 (native MDH; log of IC50 (μM scale), with standard deviation, read-out: log(IC50) Native MDH Reporter (converted)): > 63.1 µM
SMILES: CO[C@H]1/C=C/O[C@@]2(C)Oc3c(C)c(O)c4c(O)c(c(/C=N/N5CCN(C)CC5)c(O)c4c3C2=O)NC(=O)/C(C)=C\C=C\[C@H](C)[C@H](O)[C@@H](C)[C@@H](O)[C@@H](C)[C@H](OC(C)=O)[C@@H]1C [Rifampicin, rifampicin, reference compound]
- EC50 ([1]; MRSA, OD600 at 6-8 h, read-out: Bacterial Proliferation EC50 S. aureus Resistant): 0.23 µM
- EC50 ([1]; MRSA, log of EC50 (μM scale), with standard deviation, read-out: log(EC50) Bacterial Proliferation Assay S. aureus Resistant (converted)): 0.229 µM
- EC50 ([2]; ATCC19434, OD600 at 24 h, read-out: Bacterial Proliferation EC50 E. faecium): 0.13 µM
- EC50 ([2]; ATCC19434, log of EC50 (μM scale), with standard deviation, read-out: log(EC50) Bacterial Proliferation Assay C. faecium (converted)): 0.126 µM
- EC50 ([3]; ATCC13883, OD600 at 6-8 h, read-out: Bacterial Proliferation EC50 K. pneumoniae): 11 µM
- EC50 ([3]; ATCC13883, log of EC50 (μM scale), with standard deviation, read-out: log(EC50) Bacterial Proliferation Assay K. pneumoniae (converted)): 11 µM
- EC50 ([4]; ATCC19606, OD600 at 24 h, read-out: Bacterial Proliferation EC50 A. baumannii): 1.3 µM
- EC50 ([4]; ATCC19606, log of EC50 (μM scale), with standard deviation, read-out: log(EC50) Bacterial Proliferation Assay A. baumannii (converted)): 1.32 µM
- EC50 ([5]; ATCC25923, OD600 at 6-8 h, read-out: Bacterial Proliferation EC50 S. aureus Sensitive): < 0.05 µM
- EC50 ([5]; ATCC25923, log of EC50 (μM scale), with standard deviation, read-out: log(EC50) Bacterial Proliferation Assay S. aureus Sensitive (converted)): < 0.0501 µM
- EC50 ([6]; ATCC13047, OD600 at 6-8 h, read-out: Bacterial Proliferation EC50 E. cloacae): 8.8 µM
- EC50 ([6]; ATCC13047, log of EC50 (μM scale), with standard deviation, read-out: log(EC50) Bacterial Proliferation Assay E. cloacae (converted)): 8.71 µM

SMILES: CN[C@H](CC(C)C)C(=O)N[C@H]1C(=O)N[C@@H](CC(N)=O)C(=O)N[C@H]2C(=O)N[C@H]3C(=O)N[C@H](C(=O)N[C@H](C(=O)O)c4cc(O)cc(O)c4-c4cc3ccc4O)[C@H](O)c3ccc(c(Cl)c3)Oc3cc2cc(c3O[C@@H]2O[C@H](CO)[C@@H](O)[C@H](O)[C@H]2O[C@H]2C[C@](C)(N)[C@H](O)[C@H](C)O2)Oc2ccc(cc2Cl)[C@H]1O [Vancomycin, vancomycin, reference compound]
- EC50 ([1]; read-out: Bacterial Proliferation EC50 S. aureus Resistant): 0.52 µM
- EC50 ([1]; read-out: log(EC50) Bacterial Proliferation Assay S. aureus Resistant (converted)): 0.513 µM
- IC50 (native MDH; Biochemical Assay IC50 Native MDH Reporter): > 63 µM
- IC50 (native MDH; log(IC50) Native MDH Reporter, log of IC50 (μM scale), with standard deviation): > 63.1 µM
- EC50 ([2]; ATCC19434, 24 h, read-out: Bacterial Proliferation EC50 E. faecium): 0.6 µM
- EC50 ([2]; ATCC19434, read-out: log(EC50) Bacterial Proliferation Assay C. faecium (converted)): 0.589 µM
- EC50 ([3]; ATCC13883, read-out: Bacterial Proliferation EC50 K. pneumoniae): > 100 µM
- EC50 ([3]; ATCC13883, read-out: log(EC50) Bacterial Proliferation Assay K. pneumoniae (converted)): > 100 µM
- EC50 ([4]; ATCC19606, 24 h, read-out: Bacterial Proliferation EC50 A. baumannii): > 100 µM
- EC50 ([4]; ATCC19606, read-out: log(EC50) Bacterial Proliferation Assay A. baumannii (converted)): > 100 µM
- EC50 ([5]; ATCC25923, read-out: Bacterial Proliferation EC50 S. aureus Sensitive): 0.67 µM
- EC50 ([5]; ATCC25923, read-out: S. aureus Proliferation & Biofilm Assay EC50 Planktonic Growth): 0.67 µM
- EC50 ([5]; ATCC25923, read-out: log(EC50) Bacterial Proliferation Assay S. aureus Sensitive (converted)): 0.661 µM
- EC50 ([6]; ATCC13047, read-out: Bacterial Proliferation EC50 E. cloacae): > 100 µM
- EC50 ([6]; ATCC13047, read-out: log(EC50) Bacterial Proliferation Assay E. cloacae (converted)): > 100 µM
